Patent US20250340519A1, “RADIOLABELLED COMPOUND” (OXFORD UNIVERSITY INNOVATION LIMITED, priority 2018, published 2025)

Tests used:
U87MG and U251MG cells = assay: Blocking of 18F-olaparib uptake in U87MG and U251MG cells; format: cell-based; settings: 100 μM cold olaparib vs 1 μM ^18F-olaparib
Protocol: Olaparib (1) was used at various concentrations to block 1 μM of the radiolabelled isotopologue, ^18F-olparib (compound 3); see FIG. 26.

[1] = test system: U87MG and U251MG xenografts; assay: 18F-olaparib biodistribution in U87MG and U251MG tumour xenograft mouse models; format: in vivo, Balb/c nude mice; settings: 20 μg cold olaparib prior to 1 μg ^18F-olaparib, tail vein
Protocol: U87MG and U251MG xenografts were generated in Balb/c nude mice. The xenograft models were administered various doses (0.5, 1.0, 4.0, and 8.0 μg) of ^18F-olaparib by tail vein injection. At 60-120 min post-injection, mice were sacrificed and organs were collected for biodistribution; see FIGS. 27(a) and (b), and FIG. 28(a). […] We predicted that the uptake for the U251MG xenografts would be greater, but in vivo there is no significant difference between the % ID/g for the U251MG or U87MG xenograft tumours.
A 20-fold excess of cold olaparib was injected via tail vein 60 m prior to 1 μg of ^18F-olaparib via tail vein. The mice were sacrificed at 60-120 min post-injection and organs were harvested.

PANC-1 cells = assay: Cell uptake of [18F]olaparib in PANC-1 cells; format: cell-based, human; settings: excess of unlabelled inhibitor
Protocol: PARP1 levels in a limited selection of PDAC cell lines were determined using Western blot and confirmed by immunofluorescence microscopy. […] Uptake was reported as a percentage of the total amount added, per mg of total protein recovered from the isolated cells, determined by BCA assay. Specificity of uptake was determined by blocking olaparib binding sites using an excess of cold, unlabeled olaparib, or other PARP inhibitors (rucaparib, talazoparib).
Cell uptake of ^18F-olaparib in Panc-1, MiaPaCa-2 and Capan-1 cells was determined as previously described (Cornelissen, B., Hu, M., McLarty, K., Costantini, D. & Reilly, R. M.
Cellular penetration and nuclear importation properties of 111In-labeled and 123I-labeled HIV-1 tat peptide immunoconjugates in BT-474 human breast cancer cells. Nucl Med Biol 34, 37-46, 2007; Thurber, G. M., Reiner, T., Yang, K. S., Kohler, R. H. & Weissleder, R. Effect of small-molecule modification on single-cell pharmacokinetics of PARP inhibitors. Molecular cancer therapeutics 13, 986-995, 2014; Reiner, T., et al. Imaging therapeutic PARP inhibition in vivo through bioorthogonally developed companion imaging agents. Neoplasia 14, 169-177, 2012). Aliquots of Panc-1, MiaPaca-2, and Capan-1 cells (1.5×10^5 cells/well) were seeded in 24-well plates in warm cell culture medium (500 μL) and the cells were allowed to adhere overnight. Cells were irradiated (10 Gy; dose rate 0.8 Gy/min) or sham-irradiated and then returned to an incubator (37° C., 5% CO2) for 2 h. […] In the blocking groups, non-radioactive olaparib, talazoparib, or rucaparib were also added in increasing concentrations (10 pM-10 μM. After 30 or 60 minutes, the cell culture medium was removed and combined with two washes (500 μL) of cell culture medium. The remaining monolayer of cells was then lysed with 0.1 M sodium hydroxide for 20 minutes at room temperature. The amount of radioactivity contained within the cell culture medium and the cell lysate fractions was measured using a gamma counter. Protein levels from parallel plates were quantified using a Pierce BCA protein assay kit (Thermo Scientific) according to the manufacturer's recommendations and bovine serum albumin was used as the protein standard. Cell uptake levels of [^18F]-olaparib were normalised to percent of the total added radioactivity per milligram protein. […] IC50 values were calculated using GraphPad Prism software (GraphPad Software, San Diego, CA, USA). […]
Aliquots of Panc-1, MiaPaca-2, and Capan-1 cells (7.5×10^4 cells/well) were seeded in 24-well plates in warm cell culture medium (500 μL). […] The amount of radioactivity contained within the cell culture medium and the cell lysate fractions was measured using a gamma counter. […]

[2] = female mice, intravenous bolus 20 mg/kg; cited from earlier work

Row | Structure (SMILES) | blocking of ^18F-olaparib uptake in vitro (U87MG and U251MG cells) [%] | blocking of ^18F-olaparib tumour uptake in vivo [1] [%] | blocking of [^18F]olaparib uptake by excess PARP inhibitor (PANC-1 cells) | previously reported half-life [2] [min]
1 | O=C(c1cc(Cc2n[nH]c(=O)c3ccccc23)ccc1F)N1CCN(C(=O)C2CC2)CC1 [Compound 1, 4-(3-(4-(cyclopropanecabonyl)piperazine-1-carbnonyl)-4-fluorobenzyl)phthalazin-1(2H)-one] | ~70 | ~75 | could be blocked | 58
2 | CNCc1ccc(-c2[nH]c3cc(F)cc4c3c2CCNC4=O)cc1 [rucaparib] |  |  | could be blocked | 
3 | Cn1ncnc1[C@H]1c2n[nH]c(=O)c3cc(F)cc(c23)N[C@@H]1c1ccc(F)cc1 [talazoparib] |  |  | could be blocked | 
